For data set [1] the following is noted: Liquid; for mass density: 293.15 K, 101.33 kPa, Pycnometric method.
A short description of data set [2]: refractive index (Na D-line) (dimensionless). The note with it: 101.33 kPa, Liquid, Standard Abbe refractometry.
Data set [3] can be described thus: Boiling temperature at pressure P. The note with it: Liquid, Ebulliometric method (Recirculating still).

Numbers after ± are expanded uncertainties.

As usually defined, the mass density is mass per unit of volume. Usually vapor or sublimation pressure stands for the equilibrium pressure above the liquid or solid. By refractive index is commonly meant the speed of light in vacuum divided by its phase velocity in the sample. Take `CC(C)CO` [2-methyl-1-propanol]: the mass density in data set [1] turned out to be 801.8 ± 1 kg/m3. Further, the “vapor or sublimation pressure” value in data set [1] (381.1 K, Ebulliometric method (Recirculating still)) is listed as 101.33 ± 0.51 kPa. Also, in data set [2] (298.15 K), the refractive index turned out to be 1.3939 ± 0.0007.
As to `CCCCO` [butan-1-ol], in data set [1], the mass density was found to be 809.5 ± 1 kg/m3. Moreover, the refractive index in data set [2] (298.15 K) was 1.3971 ± 0.0007.
As for `COCOCC(C)C` [1-(methoxymethoxy)-2-methylpropane], the mass density in data set [1] was 832.5 ± 1 kg/m3. In addition, the “Boiling temperature at pressure P” value amounted to 33.5 ± 0.18 °C in data set [3] (5.01 kPa); 47 ± 0.16 °C in data set [3] (9.98 kPa); 55.23 ± 0.13 °C in data set [3] (14.69 kPa); 62.17 ± 0.12 °C in data set [3] (19.75 kPa); 69.60 ± 0.11 °C in data set [3] (26.67 kPa); 80.57 ± 0.11 °C in data set [3] (40.02 kPa). Further, the “Boiling temperature at pressure P” value in data set [3] (53.72 kPa) amounted to 89.19 ± 0.11 °C; in data set [3] (65.01 kPa), 95.2 ± 0.1 °C; in data set [3] (79.21 kPa), 101.51 ± 0.1 °C; in data set [3] (90 kPa), 105.86 ± 0.1 °C; in data set [3] (101.33 kPa), 109.98 ± 0.1 °C; in data set [3] (116.34 kPa) it was 115.03 ± 0.1 °C. For the same compound, the “Boiling temperature at pressure P” value is 116.21 ± 0.1 °C in data set [3] (120 kPa), 117.72 ± 0.1 °C in data set [3] (125.01 kPa) and 119.27 ± 0.1 °C in data set [3] (130 kPa). Also, the values for the refractive index in data set [2] (293.15 K) and in data set [2] (298.15 K) were 1.385 ± 0.0007 and 1.3827 ± 0.0007, respectively.

Source of the values: the NIST ThermoML archive (doi:10.1016/j.jct.2017.08.006).
